Measurements as given in patent publication US6165770A, “Alkaline stable amylase from Thermoalcalibacter” (Novo Nordisk A/S, priority 1996, dated 2000).
Where a name gives a salt, the structure may show the parent alone.

Biological target: T1, α-amylase from Thermoalcalibacter bogoriae (Anaerobranca gottschalkii, UniProt Q5I942)
T1 sequence (Q5I942 24-532): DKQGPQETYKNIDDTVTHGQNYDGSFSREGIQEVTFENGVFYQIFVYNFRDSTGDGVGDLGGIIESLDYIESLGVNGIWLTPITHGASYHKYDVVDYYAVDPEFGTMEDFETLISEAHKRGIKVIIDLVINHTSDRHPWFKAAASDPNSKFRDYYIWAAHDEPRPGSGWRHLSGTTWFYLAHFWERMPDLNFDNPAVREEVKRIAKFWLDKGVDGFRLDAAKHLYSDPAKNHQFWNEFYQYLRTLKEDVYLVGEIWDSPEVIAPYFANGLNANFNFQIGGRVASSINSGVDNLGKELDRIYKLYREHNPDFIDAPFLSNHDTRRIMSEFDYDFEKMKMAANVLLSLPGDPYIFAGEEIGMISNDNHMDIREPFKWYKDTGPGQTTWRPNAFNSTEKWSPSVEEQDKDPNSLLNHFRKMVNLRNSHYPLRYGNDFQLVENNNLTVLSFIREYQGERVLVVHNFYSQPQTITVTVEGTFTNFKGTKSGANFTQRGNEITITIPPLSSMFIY
Test: Effect of metal ions and chemical reagents on amylase activity
Type: biochemical
Method: The effect of metal ions on the activity of the amylase of the present invention was examined by pre-incubating the enzyme together with metal ions for 30 min. at 65° C., pH 8.0 in a substrate solution containing (wt/vol) soluble starch (0.5%). Subsequently an enzyme assay was performed at 65° C. for 30 min in order to determine the residual activity of the amylase. For further details see working example herein (vide infra) and FIG. 4.
The amylase activity was measured at pH 8.0 -higher pH would interfere with metal ion solutions- and 65° C. in presence of various metal ions at 1 mM, 2 mM and 5 mM concentration and in presence of some chemical reagents (FIG. 4).

[1] = pH 8.0, 65° C., 1 mM, 2 mM and 5 mM

| Compound | effect of metal ions on amylase activity [1] | further results |
| --- | --- | --- |
| [Co+2] [Co^2+] | not or only slightly inhibited | – |
| [Cr+6] [Cr^6+] | Strong inhibition | – |
| OC(CS)C(O)CS (stereo not drawn) [DTT] | – | effect of chemical reagents on amylase activity at 5 mM (pH 8.0, 65° C.): totally inhibited |
| O=C(O)CN(CCN(CC(=O)O)CC(=O)O)CC(=O)O [EDTA] | – | effect of metal ions on amylase activity (pH 8): not or only slightly inhibited |
| N=C(N)N [Guanidine-HCl] | – | effect of chemical reagents on amylase activity at 5 mM (pH 8.0, 65° C.): stimulatory effect |
| [Mg+2] [Mg^2+] | Moderate inhibition | – |
| [Ni+2] [Ni^2+] | Moderate inhibition | – |
| NCCc1ccc(S(=O)(=O)F)cc1 [Pefabloc SC] | – | effect of chemical reagents on amylase activity at 5 mM (pH 8.0, 65° C.): did not interfer |
| CCCCCCCCCCCCOS(=O)(=O)O [SDS] | – | effect of chemical reagents on amylase activity at 5 mM (pH 8.0, 65° C.): totally inhibited |

Second part, led by results:

| effect of metal ions on amylase activity [1] | Compound | further results |
| --- | --- | --- |
| not or only slightly inhibited | [Ca+2] [Ca^2+] | – |
| Strong inhibition | [Cu+2] [Cu^2+] | – |
| Strong inhibition | [Fe+2] [Fe^2+] | – |
| moderate stimulation | [Mn+2] [Mn^2+] | – |
| Strong inhibition | [V+4] [V^4+] | – |
| Moderate inhibition | [Zn+2] [Zn^2+] | – |
